Assays:
[1] = Day 10 of riluzole single agent treatment (100 mg BID), advanced melanoma patients, n = 9; cited from earlier work
RAF1 = details: cited from earlier work
[2] = Drug related adverse events (CTCAE version 4.0); type: in vivo, human
Procedure: Safety assessments including complete blood counts, serum chemistries, liver enzymes and toxicity evaluations were completed at baseline, day 1 and 15 of cycle 1, and then day 1 of every cycle thereafter. Toxicities were evaluated and graded using the CTEP NCI Common Terminology Criteria for Adverse Events (CTCAE), version 4.0.

[3] = drug related AE, Grade ≥3, n=35
[4] = drug related AE, any grade, n=35

Nc1nc2ccc(OC(F)(F)F)cc2s1 [riluzole]
78.4 ng/mL: riluzole trough levels, geomean [1]
